ChEMBL document CHEMBL6127037, “Design, synthesis, and biological evaluation of imidazolylacetophenone oxime derivatives as novel brain-penetrant agents for Alzheimer's disease treatment” (Eur J Med Chem, 2024)
Active and inactive are the calls of the source. The rule behind the calls is not given here.

Experiments:
[1] = tested on: BV-2; experiment: Anti-neuroinflammatory activity against LPS-stimulated mouse BV-2 cells assessed as inhibition of NO production at 10 uM; assay type: functional; set-up: scale not given: the % may be the effect or the level left
[2] = Cytotoxicity against LPS stimulated mouse BV-2 cells assessed as cell survival at 10 uM by MTT assay; assay type: toxicity, cell-based; details: LPS-stimulated BV-2 cells, read-out: Activity
[3] = tested on: BV-2; experiment: Anti-neuroinflammatory activity against LPS-stimulated mouse BV-2 cells assessed as inhibition of NO production at 1 uM; assay type: functional; set-up: scale not given: the % may be the effect or the level left
[4] = target: Acetylcholinesterase (Electrophorus electricus) (UniProt O42275); experiment: Inhibition of electric eel AChE at 20 uM using […] as substrate pretreated for 20 mins prior to DTNB addition for 30 mins followed by substrate addition and measured after 45 mins by Ellman's method relative to control; details: time 95.0 min
Acetylcholinesterase (Electrophorus electricus), sequence (O42275 24-633 limits assumed): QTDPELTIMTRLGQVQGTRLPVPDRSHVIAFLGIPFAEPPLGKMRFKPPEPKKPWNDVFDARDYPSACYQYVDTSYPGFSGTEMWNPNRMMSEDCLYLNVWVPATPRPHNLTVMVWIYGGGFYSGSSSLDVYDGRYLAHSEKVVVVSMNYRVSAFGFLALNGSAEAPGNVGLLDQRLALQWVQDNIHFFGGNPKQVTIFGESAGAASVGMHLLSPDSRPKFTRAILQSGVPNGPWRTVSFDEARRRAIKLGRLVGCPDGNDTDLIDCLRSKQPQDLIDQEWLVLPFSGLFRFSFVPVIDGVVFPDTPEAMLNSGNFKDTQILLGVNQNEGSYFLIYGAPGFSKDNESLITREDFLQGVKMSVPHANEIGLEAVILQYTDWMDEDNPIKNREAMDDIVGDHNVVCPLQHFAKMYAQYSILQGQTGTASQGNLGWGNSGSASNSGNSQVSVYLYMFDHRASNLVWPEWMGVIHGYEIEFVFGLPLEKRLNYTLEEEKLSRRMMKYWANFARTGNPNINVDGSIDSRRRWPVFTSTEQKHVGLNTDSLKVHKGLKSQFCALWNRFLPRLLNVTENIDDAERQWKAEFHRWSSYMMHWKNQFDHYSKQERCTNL

[5] = Cytotoxicity against […] cells assessed as cell survival at 20 uM by MTT assay; assay type: toxicity, cell-based, Rattus norvegicus; details: read-out: Survival
[6] = tested on: BV-2; experiment: Anti-neuroinflammatory activity against LPS-stimulated mouse BV-2 cells assessed as inhibition of NO production; assay type: functional, cell-based
[7] = tested on: BV-2; experiment: Antiinflammatory activity against LPS induced mouse BV-2 cells assessed as decrease in COX2 expression incubated for 24 hrs by Western blotting analysis; assay type: functional, cell-based; details: dose 0.1-2.5 µM
[8] = tested on: BV-2; experiment: Antiinflammatory activity against LPS induced mouse BV-2 cells assessed as increase in IL-10 expression at 0.5 to 2.5 uM incubated for 24 hrs by ELISA; assay type: functional, cell-based; details: dose 0.5-2.5 µM
[9] = Cytotoxicity against mouse HT-22 cells assessed as cell survival at 20 uM by MTT assay; assay type: toxicity, cell-based; details: read-out: Survival
[10] = tested on: BV-2; experiment: Antiinflammatory activity against LPS induced mouse BV-2 cells assessed as increase in arginase-1 expression at 0.5 to 2.5 uM incubated for 24 hrs by ELISA; assay type: functional, cell-based; details: dose 0.5-2.5 µM
[11] = tested on: BV-2; experiment: Antiinflammatory activity against LPS induced mouse BV-2 cells assessed as decrease in iNOS expression incubated for 24 hrs by Western blotting analysis; assay type: functional, cell-based; details: dose 0.1-2.5 µM
[12] = tested on: PC12; experiment: Neuroprotective activity against 6-OHDA induced oxidative damage in […] cells assessed as increase in cell viability preincubated for 4 hrs followed by 6-OHDA stimulation and measured after 24 hrs by MTT assay (reference value: 48.6%); assay type: functional, cell-based; details: Rattus norvegicus, dose 1-10 µM, time 28.0 hrs
[13] = target: Amyloid-beta precursor protein (Homo sapiens) (UniProt P05067); experiment: Inhibition of self-induced amyloid beta (1 to 42 residues) (unknown origin) aggregation at 5 to 20 uM by thioflavin T based fluorescence analysis; details: dose 5-20 µM
Amyloid-beta precursor protein (Homo sapiens), sequence (P05067 whole entry, the tested form may be a part): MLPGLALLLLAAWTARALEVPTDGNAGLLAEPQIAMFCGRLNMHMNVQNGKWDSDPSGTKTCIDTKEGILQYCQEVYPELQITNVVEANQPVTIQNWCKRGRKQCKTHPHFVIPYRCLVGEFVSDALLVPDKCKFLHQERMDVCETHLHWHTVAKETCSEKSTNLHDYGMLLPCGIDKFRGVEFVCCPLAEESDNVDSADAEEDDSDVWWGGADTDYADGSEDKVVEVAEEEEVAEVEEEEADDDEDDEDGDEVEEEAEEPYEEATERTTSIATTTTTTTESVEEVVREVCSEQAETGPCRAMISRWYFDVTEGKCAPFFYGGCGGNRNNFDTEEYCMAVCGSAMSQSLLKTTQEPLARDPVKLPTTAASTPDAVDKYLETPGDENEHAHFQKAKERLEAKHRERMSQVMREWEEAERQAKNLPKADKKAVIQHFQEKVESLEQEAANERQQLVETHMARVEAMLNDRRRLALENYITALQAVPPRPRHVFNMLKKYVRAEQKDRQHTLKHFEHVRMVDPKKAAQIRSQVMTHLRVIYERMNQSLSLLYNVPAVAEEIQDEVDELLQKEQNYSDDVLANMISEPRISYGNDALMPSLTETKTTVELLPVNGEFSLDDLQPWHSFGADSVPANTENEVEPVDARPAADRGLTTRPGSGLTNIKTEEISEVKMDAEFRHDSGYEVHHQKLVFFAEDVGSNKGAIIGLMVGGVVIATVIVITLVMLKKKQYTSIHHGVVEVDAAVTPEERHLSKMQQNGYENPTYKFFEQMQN

[14] = tested on: BV-2; experiment: Antiinflammatory activity against LPS induced mouse BV-2 cells assessed as decrease in TNFalpha expression incubated for 24 hrs by ELISA; assay type: functional, cell-based; details: dose 0.1-2.5 µM
[15] = tested on: BV-2; experiment: Antiinflammatory activity against LPS induced mouse BV-2 cells assessed as decrease in PGE2 expression incubated for 24 hrs by ELISA; assay type: functional, cell-based; details: dose 0.1-2.5 µM
[16] = tested on: HT-22; experiment: Neuroprotective activity against RSL3 induced ferroptosis in mouse HT-22 cells assessed as increase in cell viability at 10 uM preincubated for 4 hrs followed by RSL3 stimulation and measured after 24 hrs by MTT assay (reference value: 52.1%); assay type: functional; details: time 28 hrs
[17] = target: Amyloid-beta precursor protein (Homo sapiens) (UniProt P05067); experiment: Inhibition of self-induced amyloid beta (1 to 42 residues) (unknown origin) aggregation at 20 uM by thioflavin T based fluorescence analysis

| Structure (SMILES) | Activity [1] [%] | viability at 10 µM [2] [%] | Activity [3] [%] | further results |
| --- | --- | --- | --- | --- |
| COc1cc(/C=C/C(=O)O/N=C(\Cn2ccnc2)c2ccc3c(c2)OCO3)ccc1O | 67.6 | 89.4 | 39.4 |  |
| CN(C)c1ccc(/C(Cn2ccnc2)=N/OC/C=C/c2ccccc2)cc1 | 40.7 | 98.1 | 22.5 |  |
| CN(C)c1ccc(/C(Cn2ccnc2)=N/OCc2ccccc2)cc1 | 48.7 | 97.3 | 27.6 |  |
| c1cn(CCc2ccc3c(c2)OCO3)cn1 | 47.9 | 93.3 | 19.6 |  |
| FCCO/N=C(\Cn1ccnc1)c1ccc2c(c1)OCO2 | 99.4 | 116 | 69.5 | inhibition [4]: 60.1%; viability at 20 µM [5]: > 95%; EC50 [6]: 490 nM; Activity [7]: Dose-Dependent Effect; Activity [8]: Active; viability at 20 µM [9]: > 90%; Activity [10]: Active; Activity [11]: Dose-Dependent Effect; Activity [12]: Dose-Dependent Effect; inhibition [13]: Active; Activity [14]: Dose-Dependent Effect; Activity [15]: Dose-Dependent Effect; Activity [16]: 66.6% |
| O=C(CCCCCO/N=C(\Cn1ccnc1)c1ccc2c(c1)OCO2)NO | 82.9 | 111 | 42.7 | viability at 20 µM [5]: > 95%; EC50 [6]: 1090 nM; viability at 20 µM [9]: > 90%; Activity [12]: Dose-Dependent Effect; inhibition [13]: Active; Activity [16]: 66.7% |
| O=c1c(O)c(-c2ccc(O)c(O)c2)oc2cc(O)cc(O)c12 [QUERCETIN] | 52.8 | 91.3 |  |  |
| C#CCO/N=C(\Cn1cnc(CO)c1C)c1ccc2c(c1)OCO2 | 48.7 | 75.8 | 27.6 |  |
| C#CCO/N=C(\Cn1ccnc1)c1ccc(C(=O)OCC)cc1 | 73.5 | 115 | 34.8 |  |
| Cc1c(CO)ncn1CC(=O)c1ccc2c(c1)OCO2 | 37.7 | 99.8 | 27.4 |  |
| C=C(C)CO/N=C(\Cn1ccnc1)c1ccc(N(C)C)cc1 | 46.3 | 98.6 | 28.1 |  |
| COC(Cn1ccnc1)c1ccc2c(c1)OCO2 (racemic) | 28 | 76.1 | 17.9 |  |
| COc1ccc(/C=C/C(=O)O/N=C(\Cn2ccnc2)c2ccc3c(c2)OCO3)cc1 | 91.3 | 95.9 | 45.6 |  |
| O=C(/C=C/c1ccc2c(c1)OCO2)O/N=C(\Cn1ccnc1)c1ccc2c(c1)OCO2 | 73 | 85.2 | 35.8 |  |
| CN(C)c1ccc(/C(Cn2ccnc2)=N/OC(=O)/C=C/c2ccc(Cl)cc2)cc1 | 54.1 | 85.6 | 41.2 |  |
| CN(C)c1ccc(/C(Cn2ccnc2)=N/OC(=O)/C=C/c2ccc3c(c2)OCO3)cc1 | 34.2 | 96.7 | 22.2 | viability at 20 µM [5]: > 95%; EC50 [6]: 15700 nM; Activity [12]: Dose-Dependent Effect |

| Structure (SMILES) | Activity [1] [%] | viability at 10 µM [2] [%] | Activity [3] [%] | further results |
| --- | --- | --- | --- | --- |
| O=C(CCCC[C@@H]1CCSS1)O/N=C(\Cn1ccnc1)c1ccc2c(c1)OCO2 | 99.7 | 97.5 | 51.8 | inhibition [4]: 54.9%; viability at 20 µM [5]: > 95%; EC50 [6]: 760 nM; inhibition [17]: inactive; viability at 20 µM [9]: > 90%; Activity [12]: Dose-Dependent Effect; Activity [16]: 67.7% |
| C#CCO/N=C(\Cn1ccnc1)c1ccc2c(c1)OCO2 | 84.5 | 95.9 | 45.2 | viability at 20 µM [5]: > 95%; EC50 [6]: 1180 nM; Activity [12]: Dose-Dependent Effect |
| COC(=O)CCCCCO/N=C(\Cn1ccnc1)c1ccc2c(c1)OCO2 | 76 | 116 | 35.4 |  |
| CN(C)c1ccc(/C(Cn2ccnc2)=N/OC(=O)/C=C/c2ccccc2)cc1 | 41.8 | 92.8 | 39.2 |  |
| FCCOCCOCCO/N=C(\Cn1ccnc1)c1ccc2c(c1)OCO2 | 53.9 | 99.9 | 24.4 |  |
| C#CCO/N=C(/Cn1ccnc1)c1ccc2c(c1)OCO2 | 25.5 | 98.4 | 13.4 | viability at 20 µM [5]: > 95%; EC50 [6]: > 20000 nM; Activity [12]: Dose-Dependent Effect |
| O=C(O/N=C(\Cn1ccnc1)c1ccc2c(c1)OCO2)C12CC3CC(CC(C3)C1)C2 | 88.4 | 113 | 44.1 |  |
| OC(Cn1ccnc1)c1ccc2c(c1)OCO2 (racemic) | 68.9 | 97.1 | 21.4 |  |
| FCCCO/N=C(\Cn1ccnc1)c1ccc2c(c1)OCO2 | 65 | 87.7 | 31.1 |  |
| O=C(Cn1ccnc1)c1ccc2c(c1)OCO2 | 61.6 | 97.9 | 21.5 |  |
| C#CCO/N=C(\Cn1ccnc1)c1ccc(C(=O)OC)cc1 | 72.7 | 105 | 36 |  |
| C#CCO/N=C(\Cn1ccnc1)c1ccc(N(C)C)cc1 | 49.6 | 103 | 30.9 | inhibition [4]: 70.3%; viability at 20 µM [5]: > 95%; EC50 [6]: 6780 nM; viability at 20 µM [9]: > 90%; Activity [12]: Dose-Dependent Effect; inhibition [13]: Active; Activity [16]: 62.5% |
| CN(C)c1ccc(/C(Cn2ccnc2)=N/OC(=O)CCc2ccccc2)cc1 | 31.4 | 92.5 | 31.5 |  |
| C#CCO/N=C(\Cn1ccnc1)c1ccc(C(=O)NO)cc1 | 70.5 | 109 | 36.2 | viability at 20 µM [5]: > 95%; EC50 [6]: 5610 nM; Activity [12]: Dose-Dependent Effect |
| CN(C)c1ccc(/C(Cn2ccnc2)=N/OC(=O)/C=C/c2ccccc2Cl)cc1 | 65.8 | 105 | 38.8 |  |
